According to patent US20140031278A1, “Novel Glucagon Analogues” (NOVO NORDISK A/S, priority 2011, published 2014):
*1 amine or outer side, *2 acyl side, *3 side chain or, on linkers, in order; H or OH if unused. Where a SMILES comes first, the peptide text is derived from it. Side-chain parts run from the residue outwards. The star is where a group is joined. γGlu = O=C(O)[C@H](CCC(=O)[*:2])N[*:1]; Pentanoyl = CCCCC(=O)*

Biological target: T1, glucagon receptor (Homo sapiens, UniProt P47871)
T1 construct: expressed in transfected cells
T1 sequence (P47871 26-477): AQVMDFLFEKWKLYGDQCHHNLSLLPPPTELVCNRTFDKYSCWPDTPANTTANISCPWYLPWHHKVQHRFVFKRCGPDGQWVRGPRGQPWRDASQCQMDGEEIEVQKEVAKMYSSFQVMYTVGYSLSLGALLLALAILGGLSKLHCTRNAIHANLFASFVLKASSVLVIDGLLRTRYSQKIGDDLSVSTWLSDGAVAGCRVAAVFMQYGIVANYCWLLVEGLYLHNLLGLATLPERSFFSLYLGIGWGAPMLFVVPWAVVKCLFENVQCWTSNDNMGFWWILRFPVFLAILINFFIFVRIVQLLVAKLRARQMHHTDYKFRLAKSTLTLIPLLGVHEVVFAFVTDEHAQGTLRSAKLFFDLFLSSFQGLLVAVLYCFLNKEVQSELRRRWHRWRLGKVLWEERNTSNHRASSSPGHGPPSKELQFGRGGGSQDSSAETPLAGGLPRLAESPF
Test: Assay (I) Glucagon activity (cAMP biosensor, FLIPR)
Format: cell-based
Conditions: HEK-293 cells with cloned glucagon receptor and cAMP biosensor; end point after 6 minutes
Summary of the method: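 HEK-293 cells expressing glucagon receptor with membrane cAMP biosensor (ACTOne), calcium-dye loaded with probenecid and a PDE inhibitor.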

SMILES | EC50 [nM]
CCCCC(=O)N[C@@H](CCC(=O)N[C@@H](CCC(=O)N[C@@H](CCC(=O)N[C@@H](CCC(=O)NCCCC[C@H](NC(=O)[C@@H](NC(=O)[C@H](Cc1ccccc1)NC(=O)[C@H](CC(=O)O)NC(=O)[C@H](C)NC(=O)[C@H](C)NC(=O)[C@H](CCCNC(=N)N)NC(=O)[C@H](CCCNC(=N)N)NC(=O)[C@H](CC(C)C)NC(=O)[C@H](CC(=O)O)NC(=O)[C@H](CC(C)C)NC(=O)[C@H](Cc1ccc(O)cc1)NC(=O)[C@H](CCCNC(=N)N)NC(=O)[C@H](CO)NC(=O)[C@H](Cc1ccc(O)cc1)NC(=O)[C@H](CC(=O)O)NC(=O)[C@H](CO)NC(=O)[C@@H](NC(=O)[C@H](Cc1ccccc1)NC(=O)[C@@H](NC(=O)CNC(=O)[C@H](CCC(N)=O)NC(=O)[C@H](CO)NC(=O)[C@@H](N)Cc1c[nH]cn1)[C@@H](C)O)[C@@H](C)O)C(C)C)C(=O)N[C@@H](Cc1c[nH]c2ccccc12)C(=O)N[C@@H](CC(C)C)C(=O)N[C@@H](CC(C)C)C(=O)N[C@@H](CO)C(=O)N[C@H](C(=O)O)[C@@H](C)O)C(=O)O)C(=O)O)C(=O)O)C(=O)O [Example 67] (H-HSQGTFTSDYSRYLDLRRAADFVK([γGlu-γGlu-γGlu-γGlu-Pentanoyl])WLLST-OH) | 0.022
CC(=O)N[C@@H](CCC(=O)N[C@@H](CCC(=O)N[C@@H](CCC(=O)N[C@@H](CCC(=O)NCCCC[C@H](NC(=O)[C@@H](NC(=O)[C@H](Cc1ccccc1)NC(=O)[C@H](CCC(=O)O)NC(=O)[C@H](C)NC(=O)[C@H](C)NC(=O)[C@H](CCCNC(=N)N)NC(=O)[C@H](CCCNC(=N)N)NC(=O)[C@@H](NC(=O)[C@H](CC(=O)O)NC(=O)[C@H](CC(C)C)NC(=O)[C@H](Cc1ccc(O)cc1)NC(=O)[C@H](CCCCN)NC(=O)[C@H](CO)NC(=O)[C@H](Cc1ccc(O)cc1)NC(=O)[C@H](CC(=O)O)NC(=O)[C@H](CO)NC(=O)[C@@H](NC(=O)[C@H](Cc1ccccc1)NC(=O)[C@@H](NC(=O)CNC(=O)[C@H](CCC(N)=O)NC(=O)CNC(=O)[C@@H](N)Cc1c[nH]cn1)[C@@H](C)O)[C@@H](C)O)C(C)C)C(C)C)C(=O)N[C@@H](Cc1c[nH]c2ccccc12)C(=O)N[C@@H](CC(C)C)C(=O)N[C@@H](CC(C)C)C(=O)N[C@@H](CO)C(=O)N[C@H](C(=O)O)[C@@H](C)O)C(=O)O)C(=O)O)C(=O)O)C(=O)O [Example 49, N^ε24-[(4S)-4-[[(4S)-4-[[(4S)-4-[[(4S)-4-acetamido-4-carboxybutanoyl]amino]-4-carboxybutanoyl]amino]-4-carboxybutanoyl]amino]-4-carboxybutanoyl]-[Gly^2,Val^16,Ala^20,Glu^21,Lys^24,Leu^27,Ser^28]-Glucagon] (H-HGQGTFTSDYSKYLDVRRAAEFVK([γGlu-γGlu-γGlu-γGlu-Ac])WLLST-OH) | 0.054
CC(=O)N[C@@H](CCC(=O)N[C@@H](CCC(=O)N[C@@H](CCC(=O)N[C@@H](CCC(=O)NCCCC[C@H](NC(=O)[C@@H](NC(=O)[C@H](Cc1ccccc1)NC(=O)[C@H](CC(=O)O)NC(=O)[C@H](C)NC(=O)[C@H](C)NC(=O)[C@H](CCCNC(=N)N)NC(=O)[C@H](CCCNC(=N)N)NC(=O)[C@@H](NC(=O)[C@H](CC(=O)O)NC(=O)[C@H](CC(C)C)NC(=O)[C@H](Cc1ccc(O)cc1)NC(=O)[C@H](CCCCN)NC(=O)[C@H](CO)NC(=O)[C@H](Cc1ccc(O)cc1)NC(=O)[C@H](CC(=O)O)NC(=O)[C@H](CO)NC(=O)[C@@H](NC(=O)[C@H](Cc1ccccc1)NC(=O)[C@@H](NC(=O)CNC(=O)[C@H](Cc1c[nH]cn1)NC(=O)[C@H](CO)NC(=O)[C@@H](N)Cc1c[nH]cn1)[C@@H](C)O)[C@@H](C)O)C(C)C)C(C)C)C(=O)N[C@@H](Cc1c[nH]c2ccccc12)C(=O)N[C@@H](CC(C)C)C(=O)N[C@@H](CC(C)C)C(=O)N[C@@H](CO)C(=O)N[C@H](C(=O)O)[C@@H](C)O)C(=O)O)C(=O)O)C(=O)O)C(=O)O [Example 10, N^ε24-[(4S)-4-[[(4S)-4-[[(4S)-4-[[(4S)-4-acetamido-4-carboxybutanoyl]amino]-4-carboxybutanoyl]amino]-4-carboxybutanoyl]amino]-4-carboxybutanoyl]-[His3,Val16,Ala20,Lys24,Leu27,Ser28]-Glucagon] (H-HSHGTFTSDYSKYLDVRRAADFVK([γGlu-γGlu-γGlu-γGlu-Ac])WLLST-OH) | 0.0167
CC(=O)N[C@@H](CCC(=O)N[C@@H](CCC(=O)N[C@@H](CCC(=O)N[C@@H](CCC(=O)NCCCC[C@H](NC(=O)[C@@H](NC(=O)[C@H](Cc1ccccc1)NC(=O)[C@H](CCC(=O)O)NC(=O)[C@H](C)NC(=O)[C@H](C)NC(=O)[C@H](CCCNC(=N)N)NC(=O)[C@H](CCCNC(=N)N)NC(=O)[C@@H](NC(=O)[C@H](CC(=O)O)NC(=O)[C@H](CC(C)C)NC(=O)[C@H](Cc1ccc(O)cc1)NC(=O)[C@H](CCCCN)NC(=O)[C@H](CO)NC(=O)[C@H](Cc1ccc(O)cc1)NC(=O)[C@H](CC(=O)O)NC(=O)[C@H](CO)NC(=O)[C@@H](NC(=O)[C@H](Cc1ccccc1)NC(=O)[C@@H](NC(=O)CNC(=O)[C@H](Cc1c[nH]cn1)NC(=O)CNC(=O)[C@@H](N)Cc1c[nH]cn1)[C@@H](C)O)[C@@H](C)O)C(C)C)C(C)C)C(=O)N[C@@H](Cc1c[nH]c2ccccc12)C(=O)N[C@@H](CC(C)C)C(=O)N[C@@H](CC(C)C)C(=O)N[C@@H](CO)C(=O)N[C@H](C(=O)O)[C@@H](C)O)C(=O)O)C(=O)O)C(=O)O)C(=O)O [Example 46, N^ε24-[(4S)-4-[[(4S)-4-[[(4S)-4-[[(4S)-4-acetamido-4-carboxybutanoyl]amino]-4-carboxybutanoyl]amino]-4-carboxybutanoyl]amino]-4-carboxybutanoyl]-[Gly^2,His^3,Val^16,Ala^2°,Glu^21,Lys^24,Leu^27,Ser^28]-Glucagon] (H-HGHGTFTSDYSKYLDVRRAAEFVK([γGlu-γGlu-γGlu-γGlu-Ac])WLLST-OH) | 0.024
CC(=O)N[C@@H](CCC(=O)N[C@@H](CCC(=O)N[C@@H](CCC(=O)N[C@@H](CCC(=O)NCCCC[C@H](NC(=O)[C@@H](NC(=O)[C@H](Cc1ccccc1)NC(=O)[C@H](CC(=O)O)NC(=O)[C@H](CCC(N)=O)NC(=O)[C@H](C)NC(=O)[C@H](CCCNC(=N)N)NC(=O)[C@H](CCCNC(=N)N)NC(=O)[C@H](CO)NC(=O)[C@H](CC(=O)O)NC(=O)[C@H](CC(C)C)NC(=O)[C@H](Cc1ccc(O)cc1)NC(=O)[C@H](CCCCN)NC(=O)[C@H](CO)NC(=O)[C@H](Cc1ccc(O)cc1)NC(=O)[C@H](CC(=O)O)NC(=O)[C@H](CO)NC(=O)[C@@H](NC(=O)[C@H](Cc1ccccc1)NC(=O)[C@@H](NC(=O)CNC(=O)[C@H](Cc1c[nH]cn1)NC(=O)[C@H](CO)NC(=O)[C@@H](N)Cc1c[nH]cn1)[C@@H](C)O)[C@@H](C)O)C(C)C)C(=O)N[C@@H](Cc1c[nH]c2ccccc12)C(=O)N[C@@H](CC(C)C)C(=O)N[C@@H](CC(C)C)C(=O)N[C@@H](CC(N)=O)C(=O)N[C@H](C(=O)O)[C@@H](C)O)C(=O)O)C(=O)O)C(=O)O)C(=O)O [Example 19, N^ε24-[(4S)-4-[[(4S)-4-[[(4S)-4-[[(4S)-4-acetamido-4-carboxybutanoyl]amino]-4-carboxybutanoyl]amino]-4-carboxybutanoyl]amino]-4-carboxybutanoyl]-[His3,Lys24,Leu27]-Glucagon] | 0.0145
CC(=O)N[C@@H](CCC(=O)N[C@@H](CCC(=O)N[C@@H](CCC(=O)N[C@@H](CCC(=O)NCCCC[C@H](NC(=O)[C@@H](NC(=O)[C@H](Cc1ccccc1)NC(=O)[C@H](CC(=O)O)NC(=O)[C@H](CCC(N)=O)NC(=O)[C@H](C)NC(=O)[C@H](CCCNC(=N)N)NC(=O)[C@H](CCCNC(=N)N)NC(=O)[C@H](CC(C)C)NC(=O)[C@H](CC(=O)O)NC(=O)[C@H](CC(C)C)NC(=O)[C@H](Cc1ccc(O)cc1)NC(=O)[C@H](CCCCN)NC(=O)[C@H](CO)NC(=O)[C@H](Cc1ccc(O)cc1)NC(=O)[C@H](CC(=O)O)NC(=O)[C@H](CO)NC(=O)[C@@H](NC(=O)[C@H](Cc1ccccc1)NC(=O)[C@@H](NC(=O)CNC(=O)[C@H](CCC(N)=O)NC(=O)[C@H](C)NC(=O)[C@@H](N)Cc1c[nH]cn1)[C@@H](C)O)[C@@H](C)O)C(C)C)C(=O)N[C@@H](Cc1c[nH]c2ccccc12)C(=O)N[C@@H](CC(C)C)C(=O)N[C@@H](CC(C)C)C(=O)N[C@@H](CO)C(=O)N[C@H](C(=O)O)[C@@H](C)O)C(=O)O)C(=O)O)C(=O)O)C(=O)O [Example 42] (H-HAQGTFTSDYSKYLDLRRAQDFVK([γGlu-γGlu-γGlu-γGlu-Ac])WLLST-OH) | 0.008
CC(=O)N[C@@H](CCC(=O)N[C@@H](CCC(=O)N[C@@H](CCC(=O)N[C@@H](CCC(=O)NCCCC[C@H](NC(=O)[C@H](C)NC(=O)[C@H](CCCNC(=N)N)NC(=O)[C@H](CCCNC(=N)N)NC(=O)[C@H](CO)NC(=O)[C@H](CC(=O)O)NC(=O)[C@H](CC(C)C)NC(=O)[C@H](Cc1ccc(O)cc1)NC(=O)[C@H](CCCCN)NC(=O)[C@H](CO)NC(=O)[C@H](Cc1ccc(O)cc1)NC(=O)[C@H](CC(=O)O)NC(=O)[C@H](CO)NC(=O)[C@@H](NC(=O)[C@H](Cc1ccccc1)NC(=O)[C@@H](NC(=O)CNC(=O)[C@H](CCC(N)=O)NC(=O)[C@H](CO)NC(=O)[C@@H](N)Cc1c[nH]cn1)[C@@H](C)O)[C@@H](C)O)C(=O)N[C@@H](CC(=O)O)C(=O)N[C@@H](Cc1ccccc1)C(=O)N[C@H](C(=O)N[C@@H](CCC(N)=O)C(=O)N[C@@H](Cc1c[nH]c2ccccc12)C(=O)N[C@@H](CC(C)C)C(=O)N[C@@H](CC(C)C)C(=O)N[C@@H](CO)C(=O)N[C@H](C(=O)O)[C@@H](C)O)C(C)C)C(=O)O)C(=O)O)C(=O)O)C(=O)O [Example 54, N^ε20-[(4S)-4-[[(4S)-4-[[(4S)-4-[[(4S)-4-acetamido-4-carboxybutanoyl]amino]-4-carboxybutanoyl]amino]-4-carboxybutanoyl]amino]-4-carboxybutanoyl]-[Lys^20,Leu^27,Ser^28]-Glucagon] | 0.018
